According to US20210251234A1 (priority 2015, published 2021):
Read-outs that look alike come from different tables or passages of the source.

Key:
potato variety Caesar [1] = test: Cultivation emergence (germination) in potato field trial; assay type: in vivo, potato (Solanum tuberosum); conditions: 22 days after seeding, plants emerged in central furrows
Text: (§1) The seeding was made on June 10. The potato variety used was Caesar, third-category tubercles were used. A soil application was made to all the treatments when fluoxastrobin fungicides were applied; 2-litters dose or commercial product per hectare, and penfuflen 0.650 litters dose per hectare; in order to prevent Fusarium spp. and/or Rhizoctoniasolani fungus attack. The experimental design used was random blocks with four repetitions; the experimental parcel was formed by four furrows at a distance between furrows of 0.92 m, and 10 meters length. The useful parcel consisted in two central furrows of each experimental parcel. Distance between plants was 0.25 m.
(§2) The applied treatments consisted in an application on the bottom of the furrow when the seeding was taking place, and eleven foliar applications.
Emergence: Cultivation emergence was determined; for which the number of plants that emerged in each parcel central furrows was counted at 100% emergence. The data were collected on Jul. 2, 2014 (22 days after seeding).

Bactericera cockerelli = Bactericera cockerelli population dynamic (adults, nymphs, eggs) in potato field trial; assay type: in vivo; conditions: for average of registered adults: B. cockerelli adults, four-repetitions average; for B. Cokerelli eggs population average / Average of registered B.cokerelli nymphs: average of four repetitions
Text: as §1, §2
Bactericera cockerelli, Population Dynamic: Studies on adult psilides, nymphs and eggs were population dynamic were made. For which purpose a count was made before the first foliar application and subsequently after each treatment application. To know the number of adults 20 net traps (with entomologic net) per experimental parcel, in each evaluation. To determine the number of eggs and nymphs, 50 pinnas were evaluated per parcel in each evaluation.

[2] = system: Zebra chip/purple top (Candidatus Liberibacter solanacearum / Candidatus Phytoplasma americanum); assay type: in vivo; conditions: relative to untreated treatment 1
potato variety Caesar [3] = test: Potato tubercle production at harvest; assay type: in vivo, potato (Solanum tuberosum); conditions: for Total production in Kilograms per parcel, Average: all categories, harvest; for Production in Kilograms per treatment categories: Combined: combined quality category; for Production in Kilograms per treatment categories: First: first quality category; for Production in Kilograms per treatment categories: Third: third quality category
Text: as §1, §2
Production: In harvest, each treatment production was analyzed, for which two lineal meters were harvested of each experimental parcel central furrows, registering the potato tubercles production for each of the four categories (first, second, third and combined).

[4] = system: Zebra chip/purple top (Candidatus Liberibacter solanacearum); assay type: in vivo; conditions: cross cut tubercles, relative to untreated
[5] = system: Zebra chip (Candidatus Liberibacter solanacearum); assay type: in vivo; conditions: fried slices, under heading Flake Burning Severity

N#Cc1ccccc1NC(=O)c1snc(Cl)c1Cl [Treatment 3, Isotianil]
Emergence Percentage (potato variety Caesar [1]; listed as 3): 61.2%
average of registered adults (Bactericera cockerelli; 02-Sep., listed as T3): 1.75
average of registered adults (Bactericera cockerelli; 5-Aug., 20 net traps per parcel, listed as T3): 1
average of registered adults (Bactericera cockerelli; 08-sep., listed as T3): 0.5
average of registered adults (Bactericera cockerelli; 12-Aug., listed as T3): 1.25
average of registered adults (Bactericera cockerelli; 18-Aug., listed as T3): 3.75
average of registered adults (Bactericera cockerelli; 19-Sep., listed as T3): 4.75
B. Cokerelli eggs population average (Bactericera cockerelli; 08-sep., listed as T3): 1.25
B. Cokerelli eggs population average (Bactericera cockerelli; 12-August, listed as T3): 1.5
Average of registered B.cokerelli nymphs (Bactericera cockerelli; 02-Sep., listed as T3): 4.5
Average of registered B.cokerelli nymphs (Bactericera cockerelli; 08-sep., listed as T3): 3
Average of registered B.cokerelli nymphs (Bactericera cockerelli; 12-Aug., listed as T3): 0
Average of registered B.cokerelli nymphs (Bactericera cockerelli; 18-Aug., listed as T3): 0
Zebra chip/purple top incidence control percentage ([2]; listed as 3): 14.35%
Total production in Kilograms per parcel, Average (potato variety Caesar [3]; listed as 3): 17.975 Kilograms per parcel
Production in Kilograms per treatment categories: Combined (potato variety Caesar [3]; listed as 3): 39.8 Kilograms
Production in Kilograms per treatment categories: First (potato variety Caesar [3]; listed as 3): 0 Kilograms
Production in Kilograms per treatment categories: Third (potato variety Caesar [3]; listed as 3): 24.3 Kilograms
tubercle staining Incidence Control Percentage ([4]; listed as 3): 35.01%
tubercle staining Severity Control Percentage ([4]; listed as 3): 43.13%
Flake burning Incidence control percentage ([5]; listed as 3): 31.3%

N#Cc1ccccc1NC(=O)c1snc(Cl)c1Cl [Treatment 4, Isotianil]
Emergence Percentage (potato variety Caesar [1]; listed as 4): 71.8%
average of registered adults (Bactericera cockerelli; 02-Sep., listed as T4): 0.25
average of registered adults (Bactericera cockerelli; 5-Aug., 20 net traps per parcel, listed as T4): 0.75
average of registered adults (Bactericera cockerelli; 08-sep., listed as T4): 0
average of registered adults (Bactericera cockerelli; 12-Aug., listed as T4): 2
average of registered adults (Bactericera cockerelli; 18-Aug., listed as T4): 1
average of registered adults (Bactericera cockerelli; 19-Sep., listed as T4): 2.75
B. Cokerelli eggs population average (Bactericera cockerelli; 02-Sep.): 0
B. Cokerelli eggs population average (Bactericera cockerelli; 5-August, 50 pinnas per parcel): 0
B. Cokerelli eggs population average (Bactericera cockerelli; 08-sep., listed as T4): 0.75
B. Cokerelli eggs population average (Bactericera cockerelli; 12-August, listed as T4): 4.5
B. Cokerelli eggs population average (Bactericera cockerelli; 18-August): 0
B. Cokerelli eggs population average (Bactericera cockerelli; 19-Sep.): 0
Average of registered B.cokerelli nymphs (Bactericera cockerelli; 02-Sep., listed as T4): 13.75
Average of registered B.cokerelli nymphs (Bactericera cockerelli; 5-Aug., 50 pinnas per parcel): 0
Average of registered B.cokerelli nymphs (Bactericera cockerelli; 08-sep., listed as T4): 0
Average of registered B.cokerelli nymphs (Bactericera cockerelli; 12-Aug., listed as T4): 2.25
Average of registered B.cokerelli nymphs (Bactericera cockerelli; 18-Aug., listed as T4): 0.25
Average of registered B.cokerelli nymphs (Bactericera cockerelli; 19-Sep.): 0
Zebra chip/purple top incidence control percentage ([2]; listed as 4): 62.65%
Total production in Kilograms per parcel, Average (potato variety Caesar [3]; listed as 4): 21.3 Kilograms per parcel
Production in Kilograms per treatment categories: Combined (potato variety Caesar [3]; listed as 4): 37.7 Kilograms
Production in Kilograms per treatment categories: First (potato variety Caesar [3]; listed as 4): 4 Kilograms
Production in Kilograms per treatment categories: Second (potato variety Caesar [3]; second quality category): 7.8 Kilograms
Production in Kilograms per treatment categories: Third (potato variety Caesar [3]; listed as 4): 35.7 Kilograms
tubercle staining Incidence Control Percentage ([4]; listed as 4): 63.35%
tubercle staining Severity Control Percentage ([4]; listed as 4): 74.50%
Flake burning Incidence control percentage ([5]; listed as 4): 54%
